# From paper PMC7033200, “Annexin A1 accounts for an anti-inflammatory binding target of sesamin metabolites” (NPJ Science of Food, 2020)
# Experiments:
# [1] = system: phosphorylated (Ser27) ANX A1 in U937 cells; experiment: ANX A1 Ser27 phosphorylation in U937 cells (western blotting); assay type: cell-based, human
# Protocol: For analyses of ANX A1 phosphorylation, the U937 cells treated as above were lysed with NP40 lysis buffer (20 mmol L^−1 Tris-HCl (pH 7.5), 150 mmol L^−1 NaCl, 1% NP40), and the lysates (10 μg) were subjected to SDS-PAGE, followed by western blotting using antibodies against ANX A1 or phosphorylated (Ser27) ANX A1 (dilution: 1:1000).
# [2] = system: TNFα production in ANX A1 KD U937 cells; experiment: TNFα production in ANX A1 knockdown U937 cells (ELISA); assay type: cell-based, human; conditions: U937 cells with knocked down ANX A1
# Protocol: U937 cells were maintained in RPMI-1640 medium (Gibco/Thermo Fisher Scientific, MA, USA) supplemented with 10% fetal bovine serum. To generate a stable ANX A1-KD cell line, lentivirus vectors encoding a control or shRNA sequence targeting ANX A1 (Supplementary Methods) were transfected into 293FT cells. The lentivirus was prepared according to the manufacturer’s instructions (Invitrogen, MA, USA). U937 cells were infected with the lentivirus, and a stable cell line was selected by maintaining the cells in medium containing 10 μg mL^−1 blasticidin (Invitrogen) for 1 week.
# (§1) For enzyme-linked immunosorbent assay (ELISA) assays, U937 cells (control or ANX A1 KD) were seeded on 96-well plates and stimulated by adding 100 nmol L^−1 phorbol myristate acetate (Sigma-Aldrich, MO, USA) for 24 h. The cells were treated for 12 h with LPS (100 ng mL^−1) with or without adding the indicated sesamin, SC1, or SC2 and/or PD98059 concentrations. The cell culture supernatants were collected, and TNFα or ANX A1 production was measured using ELISA (TNFα: R&D Systems; ANX A1: USCN, Wuhan, China) according to the manufacturer’s instructions.
# [3] = system: TNFα production in U937 cells; experiment: TNFα production in PMA/LPS-stimulated U937 cells (ELISA); assay type: cell-based, human
# Protocol: as §1
# CCl4-treated WT mice = experiment: CCl4-induced liver damage and inflammation in WT mice; assay type: in vivo, mouse (C57BL/6J); conditions: SC1 50 mg kg^−1 intraperitoneally twice
# Source text: All protocols for animal procedures were approved by the Ethics Committee of Animal Experiments in accordance with the Internal Regulations on Animal Experiments at Keio University and Suntory Holdings Ltd, which are based on the Law for the Humane Treatment and Management of Animals (Law No. 105, 1 October 1973, as amended on 30 May 2014). Male C57BL/6J wild-type (WT) mice were purchased from CLEA Japan Inc. (Tokyo, Japan). WT and ANX A1-KO mice at 7 to 9 weeks of age received an intraperitoneal injection of vehicle (corn oil, 16.7 mL kg^−1) or CCl4 (50 μL kg^−1). To evaluate the effect of sesamin, vehicle (olive oil, 5 mL kg^−1) or sesamin (25 mg kg^−1) was orally administered twice at 1 h before and 7 h after CCl4 injection. To evaluate the effect of SC1, vehicle (ethanol dissolved in corn oil at a ratio of 1:19, 5 mL kg^−1) or SC1 (50 mg kg^−1) was intraperitoneally administered twice as mentioned above. Mice were euthanized after 12 or 24 h […] CCl4 injection before collecting blood and liver samples. Plasma AST, ALT, or LDH were measured using L-type AST J2, L-type ALT J2 or L-type LD J (Wako, Osaka, Japan), respectively. The liver tissues were fixed with 10% formalin, embedded in paraffin sectioned to 3–4 μm thickness and mounted on slides. Liver sections were de-paraffinized with xylene and re-hydrated with alcohols. The staining was performed with eosin solution for the cytoplasm and Mayer’s haematoxylin solution or monoclonal galectin-3 antibody (1:100, BioLegend, CA, USA). Slides were observed under a light microscope (BX52, Olympus, Japan), and images were analysed using LUMINA VISION (Mitani Corporation, Japan).
# Production of TNFα or MCP-1 in the plasma or liver was measured using a V-PLEX Proinflammatory Panel 1 Mouse Kit or U-PLEX Mouse MCP-1 assay Kit (Meso Scale Diagnostics, USA), respectively. Plasma or liver tissues homogenised in phosphate-buffered saline (Nacalai Tesque) were applied into the pre-coated plate with antibodies against target proteins before labelling with secondary antibodies conjugated to chemiluminescence. The signal intensity was measured using an analyser (SECTOR Imager 6000, Meso Scale Diagnostics, USA).
# Total RNA of the liver was extracted using an RNeasy Mini Kit (Qiagen, USA), and the cDNAs were prepared using High-Capacity cDNA Reverse Transcription Kits (Thermo Fisher Scientific, USA). Quantitative reverse transcription-PCR was performed according to the manufacturer’s instructions using the TaqMan® Gene Expression Assay System (Applied Biosystems, USA) with a 7900HT Fast Real Time PCR System (Applied Biosystems, USA). The levels of target mRNAs were normalised using the expression of the 18S ribosomal RNA. The primer IDs are listed in Supplementary Table 1.
structure (smiles),measurement,setting,value
"Oc1ccc(C2OCC3C(c4ccc5c(c4)OCO5)OCC23)cc1O (stereo not drawn) [SC1, (7α,7′α,8α,8′α)-3′,4′-methylenedioxy-7,9′:7′,9-diepoxylignane-3,4-diol]",ANX A1 phosphorylation at Ser27,"[1]; after PMA and LPS treatment, dose-dependent, 12 h",significantly induced phosphorylation
same,ANX A1 phosphorylation at Ser27,[1]; without PMA and LPS stimulation,not observed
same,inhibitory effects on TNFα production in ANX A1 knockdown cells,[2],disappeared
same,IC50,"[3]; Homo sapiens, U-937, PMA-differentiated U937 cells, LPS, 12 h, ELISA",2200 nM
same,inhibition of TNFα production induced by LPS and PMA,"[3]; U937 cells, dose-dependent",significantly inhibited
same,MCP-1 expression in the liver,"CCl4-treated WT mice; 12 h after CCl4, WT",suppressed
same,TNFα expression in the liver,"CCl4-treated WT mice; 12 h after CCl4, WT",suppressed
same,plasma ALT,"CCl4-treated WT mice; 24 h, WT",suppressed
same,plasma AST,"CCl4-treated WT mice; 24 h, WT",suppressed
same,plasma LDH,"CCl4-treated WT mice; 24 h, WT",suppressed
